For one series, the system named is redroot pigweed (AMARE). The series can be described thus: Test 7 field trial, preemergence. Type of series: in vivo, Amaranthus retroflexus. Here is the method:
Plots were 7.6 m long by 3.0 m wide with rows spaced 76 cm apart. Seeds were spaced 15 cm apart within the rows. The field was managed using conventional tillage practices. […] Wild radish was evaluated 14 and 28 days after application. […] Results are the means of the three replicates.

In the next series the test system is flint corn (ZEAMI). Put plainly: Test 12 field trial, preemergence. It counts as in vivo, Zea mays L. ssp. indurata. The settings on record: Cpd 2 or Cpd 1 62 g a.i./ha, Diuron 2000 g a.i./ha. The source says:
(§1) In early-mid spring season, corn seeds (hybrid ‘Pioneer 3041’) were planted 5 cm deep and sugarcane nodes (variety RB-72.454) were planted 10 cm deep in separate plots in a clay soil having 2.6% organic matter and a pH of 5.6. Plots were 24 m long by 1.5 m wide with rows spaced 80 cm (corn) or 140 cm (sugarcane) apart. Corn seeds were spaced 15 cm apart and sugarcane nodes were spaced 10 cm apart within the rows. At the same time, weed seeds were broadcast over the surface of separate plots without a crop, one weed species per plot. The weed plots were rotary tilled to incorporate the weed seeds to a variety of depths. The field was managed using conventional tillage practices.

For a further series, the system named is slender amaranth (AMAVI). Put plainly: Test 12 field trial, preemergence. Further details: scale not given here. Conditions: Cpd 2 or Cpd 1 62 g a.i./ha, Diuron 2000 g a.i./ha. Type of series: in vivo, Amaranthus viridis.
From the text: as §1

The next series relates to sicklepod (CASOB). Put plainly: Test 12 field trial, preemergence. It counts as in vivo, Cassia obtusifolia. Further details: scale not given here. The settings on record: Cpd 2 or Cpd 1 62 g a.i./ha, Diuron 2000 g a.i./ha.
From the text: as §1

A further series relates to common ragweed (AMBEL). Put plainly: Test 14 field trial, preemergence, growth as percent of control. It counts as in vivo, Ambrosia artemisiifolia. The source says: Corn seeds (hybrid ‘Pioneer 31G96 RR’) were planted in mid spring season, 3.8 cm deep in a clay loam soil having 2% organic matter and a pH of 6.6. Plots were 6.1 m long by 3.0 m wide with rows spaced 76 cm apart. Seeds were spaced 15 cm apart within the rows. The field was managed using conventional tillage practices. […] Yellow nutsedge was only evaluated 19 and 28 days after application, and ivyleaf morningglory could only be evaluated 28 days after application. […] Results are the means of the three replicates. This growth inhibition data was converted to results in the form of “plant growth as a percent of control plant growth” using the calculation “100 minus growth inhibition”. […] For “growth as a percent of control” data, Colby's Equation calculates the expected additive effect of herbicidal mixtures having two active ingredients as follows:
Ga+b=GaGb/100 • wherein Ga+b is the growth as a percent of control of plants treated with the mixture expected from additive contribution of the individual components, • Ga is the observed growth as a percent of control of plants treated with the first active ingredient at the same use rate as in the mixture, and • Gb is the observed growth as a percent of control of plants treated with the second active ingredient at the same use rate as in the mixture. For mixtures having three active ingredients, Colby's Equation to calculate the expected additive effect of herbicidal mixtures is as follows:
Ga+b+c=GaGbGc/10,000 • wherein Ga and Gb are as defined above and • Ga+b+c is the growth as a percent of control of plants treated with the mixture expected from additive contribution of the individual components, and • Gc is the observed growth as a percent of control of plants treated with the third active ingredient at the same use rate as in the mixture. When these two forms of Colby's Equation are used, if the observed effects on weeds are less than the expected values, the mixture is synergistic.

Another series has as its system winter wheat (TRZAW). The series can be described thus: Test 19 growth chamber, postemergence. Type of series: in vivo, Triticum aestivum. As for the experimental part: A test was conducted to evaluate the effects on winter barley (HORVW, Hordeum vulgare L.) and winter wheat (TRZAW, Triticum aestivum L.) of mixtures of Compound 2 with the commercial herbicide (2,4-dichlorophenoxy)acetic acid (2,4-D), an auxin mimic. […] Plants were treated postemergence at the 3-leaf growth stage, and each treatment was replicated four times. […] Plants were watered as needed. […] Results are the means of the four replicates.

A further series relates to Russian thistle (SASKR). Put plainly: Test 22 growth chamber, postemergence. Type of series: in vivo, Salsola kali. Conditions: 25 DAA. As for the experimental part: (§2) A test was conducted to evaluate the effects on winter barley (HORVW, Hordeum vulgare L.), winter wheat (TRZAW, Triticum aestivum L.), and several weed species of mixtures of Compound 2 with the commercial herbicides (2,4-dichlorophenoxy)acetic acid (2,4-D) and (4-chloro-2-methylphenoxy)acetic acid (MCPA), auxin mimics. […] Plants were treated postemergence at the 2-4 leaf growth stage, except KCHSC, SASKR and STEME which were in the 4-8 leaf growth stage. Each treatment was replicated one time. […] Plants were watered as needed. […] Results are from single replicates.

The next series concerns wild mustard (SINAR). Put plainly: Test 22 growth chamber, postemergence. Type of series: in vivo, Sinapis arvensis. The settings on record: 25 DAA. As for the experimental part: as §2
In the next series the test system is wild chamomile (MATCH). Put plainly: Test 23 growth chamber, postemergence. Type of series: in vivo, Matricaria chamomilla. Conditions: 21 DAA. As for the experimental part:
(§3) A test was conducted to evaluate the effects on winter barley (HORVW, Hordeum vulgare L.), winter wheat (TRZAW, Triticum aestivum L.), and several weed species of mixtures of Compound 2 with the commercial herbicides (2,4-dichlorophenoxy)acetic acid (2,4-D) and (4-chloro-2-methylphenoxy)acetic acid (MCPA), auxin mimics. […] Plants were treated postemergence at the 2-4 leaf growth stage, and each treatment was replicated three times. […] Plants were watered as needed. […] Results are means of the three replicates.

The next series has as its system common chickweed (STEME). The series can be described thus: Test 23 growth chamber, postemergence. Type of series: in vivo, Stellaria media. Conditions: 21 DAA. As for the experimental part:
as §3

Where [1] appears, read: 2,4-D or MCPA alone 250 g a.i./ha.

On to `COC(=O)c1nc(C2CC2)nc(N)c1Cl` [Compound 2, methyl 6-amino-5-chloro-2-cyclopropyl-4-pyrimidinecarboxylate], for which the “AMARE Obs” value was determined as 97% in the series with redroot pigweed (AMARE) (14 DAA, 125 g a.i./ha); 100% in the series on redroot pigweed (AMARE) (14 DAA, 250 g a.i./ha); 100% with redroot pigweed (AMARE) (14 DAA, 500 g a.i./ha); 92% in the series on redroot pigweed (AMARE) (28 DAA, 125 g a.i./ha); 100% in the series with redroot pigweed (AMARE) (28 DAA, 250 g a.i./ha); 100% in the series on redroot pigweed (AMARE) (28 DAA, 500 g a.i./ha). The “AMARE Obs” value with redroot pigweed (AMARE) (62 DAA, 125 g a.i./ha) is reported as 80%; with redroot pigweed (AMARE) (62 DAA, 500 g a.i./ha), 100%. Further, the ZEAMI Obs in the series on flint corn (ZEAMI) (15 DAA) stood at 15%; in the series on flint corn (ZEAMI) (29 DAA), 10%; in the series on flint corn (ZEAMI) (48 DAA) it was 0%; with flint corn (ZEAMI) (61 DAA) it was 15%. The “AMAVI Obs” value in the series on slender amaranth (AMAVI) (15 DAA) stood at 90; in the series with slender amaranth (AMAVI) (29 DAA) it was 60; with slender amaranth (AMAVI) (48 DAA), 40; in the series on slender amaranth (AMAVI) (61 DAA) it was 0. Further, the “CASOB Obs” value in the series with sicklepod (CASOB) (15 DAA) is listed as 60; in the series with sicklepod (CASOB) (29 DAA) it was 80; in the series on sicklepod (CASOB) (48 DAA) it was 60; in the series on sicklepod (CASOB) (61 DAA), 50. For the same molecule, the “Obs growth % of control” value is on record as 75% in the series on common ragweed (AMBEL) (19 DAA, 75 g a.i./ha); 55% in the series with common ragweed (AMBEL) (19 DAA, 100 g a.i./ha); 20% with common ragweed (AMBEL) (28 DAA, 75 g a.i./ha); 15% in the series on common ragweed (AMBEL) (28 DAA, 100 g a.i./ha); 17% in the series on common ragweed (AMBEL) (56 DAA, 75 g a.i./ha); 12% in the series with common ragweed (AMBEL) (56 DAA, 100 g a.i./ha). For the same molecule, the “TRZAW Obs” value in the series on winter wheat (TRZAW) (in vivo) is recorded as 43. Further, the figures for the “Postemergence SASKR Obs” value with Russian thistle (SASKR) (Cpd 2 alone 4 g a.i./ha), in the series with Russian thistle (SASKR) (Cpd 2 alone 8 g a.i./ha) and with Russian thistle (SASKR) (Cpd 2 alone 16 g a.i./ha) were 50, 50 and 55, respectively. Also, the figures for the “Postemergence SINAR Obs” value in the series with wild mustard (SINAR) (Cpd 2 alone 4 g a.i./ha), with wild mustard (SINAR) (Cpd 2 alone 8 g a.i./ha) and in the series with wild mustard (SINAR) (Cpd 2 alone 16 g a.i./ha) were 60, 65 and 65, respectively. Also, the “Postemergence MATCH Obs” value was 52 in the series with wild chamomile (MATCH) (Cpd 2 alone 4 g a.i./ha), 63 in the series on wild chamomile (MATCH) (Cpd 2 alone 8 g a.i./ha) and 75 with wild chamomile (MATCH) (Cpd 2 alone 16 g a.i./ha). The “Postemergence STEME Obs” value amounted to 55 with common chickweed (STEME) (Cpd 2 alone 4 g a.i./ha), 58 in the series on common chickweed (STEME) (Cpd 2 alone 8 g a.i./ha) and 67 in the series on common chickweed (STEME) (Cpd 2 alone 16 g a.i./ha).
Consider `CCc1cccc(C)c1N(C(=O)CCl)[C@@H](C)COC` [S-Metolachlor, S-metolachlor, reference compound], for which the “AMARE Obs” value in the series with redroot pigweed (AMARE) (14 DAA, 1000 g a.i./ha) was found to be 97%; in the series on redroot pigweed (AMARE) (28 DAA, 1000 g a.i./ha), 78%; in the series on redroot pigweed (AMARE) (62 DAA, 1000 g a.i./ha), 15%. Moreover, the “Obs growth % of control” value turned out to be 100% with common ragweed (AMBEL) (19 DAA, 1870 g a.i./ha); 75% with common ragweed (AMBEL) (28 DAA, 1870 g a.i./ha); 93% in the series with common ragweed (AMBEL) (56 DAA, 1870 g a.i./ha).
With `O=C(O)COc1ccc(Cl)cc1Cl` [2,4-D, (2,4-dichlorophenoxy)acetic acid], the “TRZAW Obs” value with winter wheat (TRZAW) (Postemergence, 17 DAA, g a.i./ha: Cpd 2 16, 2,4-D 250) amounted to 23; in the series with winter wheat (TRZAW) (Postemergence, 17 DAA, g a.i./ha: Cpd 2 16, 2,4-D 500) it was 23; in the series with winter wheat (TRZAW) (Postemergence, 17 DAA, g a.i./ha: Cpd 2 16, 2,4-D 1000), 25. The “Postemergence SASKR Obs” value in the series on Russian thistle (SASKR) (setting [1]) is 60. Besides, the “Postemergence SINAR Obs” value in the series with wild mustard (SINAR) (setting [1]) amounted to 75. Also, the “Postemergence MATCH Obs” value in the series on wild chamomile (MATCH) (setting [1]) was determined as 60. In addition, the “Postemergence STEME Obs” value in the series with common chickweed (STEME) (setting [1]) was 65.
For `Nc1nc(C2CC2)nc(C(=O)O)c1Cl` [Compound 1, 6-amino-5-chloro-2-cyclopropyl-4-pyrimidinecarboxylic acid], the ZEAMI Obs in the series on flint corn (ZEAMI) (15 DAA) was 0%; with flint corn (ZEAMI) (29 DAA) it was 10%; with flint corn (ZEAMI) (48 DAA), 20%; in the series with flint corn (ZEAMI) (61 DAA), 15%. Besides, the “AMAVI Obs” value in the series with slender amaranth (AMAVI) (15 DAA) amounted to 90; in the series with slender amaranth (AMAVI) (29 DAA), 60; in the series with slender amaranth (AMAVI) (48 DAA) it was 40; with slender amaranth (AMAVI) (61 DAA), 40. Further, the “CASOB Obs” value was determined as 60 in the series on sicklepod (CASOB) (15 DAA), 70 in the series with sicklepod (CASOB) (29 DAA), 90 in the series on sicklepod (CASOB) (48 DAA) and 90 in the series on sicklepod (CASOB) (61 DAA).

Source of the values: patent US20100285959A1, “HERBICIDAL MIXTURES” (priority 2006, published 2010).
